# According to patent US6906205B2, “Spiro and dispiro 1,2,4-trioxolane antimalarials” (Medicines for Malaria Venture MMV, priority 2002, dated 2005):
# Columns and labels:
# [1] = tested on: ANKA strain of P. berghei; experiment: single dose STI in vivo screen in infected mice; design: species or system Plasmodium berghei; details: for Activity (%) po / Activity (%) sc / Activity (%) SSVpo / Activity (%) 10 mg/kg SSV po / Activity (%) 3 mg/kg SSV po: percent reduction in parasitemia day 3 post-infection; for Activity (%) po / Survival (days) po: single 10 mg/kg po in 3% ethanol and 7% Tween 80; for Activity (%) po / Activity (%) sc / Activity (%) SSVpo: mice; for Activity (%) sc / Survival (days) sc: single 10 mg/kg sc in 3% ethanol and 7% Tween 80; for Activity (%) SSVpo: single po dose in standard suspending vehicle (SSV); for Survival (days) po / Survival (days) sc / Survival (days) SSVpo: untreated control 5.6 ± 0.3; for Survival (days) SSVpo: single po dose in SSV; for Activity (%) 10 mg/kg SSV po / Survival (days) 10 mg/kg SSV po: single 10 mg/kg po in SSV; for Activity (%) 3 mg/kg SSV po / Survival (days) 3 mg/kg SSV po: single 3 mg/kg po in SSV
# Outline: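 Groups of 3-5 Moro SPF or NMRI mice infected with the ANKA strain of P. berghei received a single dose of trioxolane on day one post-infection. The compound was given in 3% ethanol and 7% Tween 80 or in SSV (0.5% w/v CMC, 0.5% v/v benzyl alcohol, 0.4% v/v Tween 80, 0.9% w/v sodium chloride in water). Antimalarial activity was scored as percent reduction in parasitemia on day three and as survival time versus untreated controls. Survival to day 30 counted as cure.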
# [2] = tested on: P. falciparum K1 strain (Thailand resistant to chloroquine); experiment: semiautomated microdilution assay, [3H]-hypoxanthine incorporation, K1 strain; type: cell-based, Plasmodium falciparum; details: K1 strain, 72 h incubation
# Outline: (§1)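 Intraerythrocytic stages from unsynchronised stock cultures are exposed to test compounds in a semiautomated microdilution format, and fifty percent inhibitory concentrations are then fitted by logit regression.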
# [3] = tested on: P. falciparum NF54 strain (sensitive to standard antimalarials); experiment: semiautomated microdilution assay, [3H]-hypoxanthine incorporation, NF54 strain; type: cell-based, Plasmodium falciparum; details: NF54 strain, 72 h incubation
# Outline: as §1
Compound,Activity (%) po [1],Activity (%) sc [1],Activity (%) SSVpo [1],Survival (days) po [1],Survival (days) sc [1],Survival (days) SSVpo [1],IC50 (ng/ml) K1 [2],IC50 (ng/ml) NF54 [3],Activity (%) 10 mg/kg SSV po [1],Survival (days) 10 mg/kg SSV po [1],Activity (%) 3 mg/kg SSV po [1],Survival (days) 3 mg/kg SSV po [1]
O=C(NC[C@H]1CC[C@]2(CC1)OOC1(O2)C2CC3CC(C2)CC1C3)c1c[nH]cn1 (some centres unmarked) [OZ263],99.53%,99.92%,99.45%,13.0 days,11.0 days,13.3 days,0.84 ng/mL,1.1 ng/mL,–,–,–,–
O=C(NC[C@H]1CC[C@]2(CC1)OOC1(O2)C2CC3CC(C2)CC1C3)c1cc[n+]([O-])cc1 (some centres unmarked) [OZ264],99.61%,99.97%,99.92%,11.0 days,13.7 days,10.3 days,1.2 ng/mL,1.5 ng/mL,–,–,–,–
NC(=O)NC[C@H]1CC[C@]2(CC1)OOC1(O2)C2CC3CC(C2)CC1C3 (some centres unmarked) [OZ265],99%,99.67%,98%,13.0 days,11.7 days,9.7 days,0.56 ng/mL,1.6 ng/mL,–,–,–,–
CN(C)C(=O)NC[C@H]1CC[C@]2(CC1)OOC1(O2)C2CC3CC(C2)CC1C3 (some centres unmarked) [OZ266],99%,99.75%,99.39%,13.7 days,11.7 days,11.7 days,1.1 ng/mL,1.5 ng/mL,–,–,–,–
CN1CCN(C(=O)NC[C@H]2CC[C@]3(CC2)OOC2(O3)C3CC4CC(C3)CC2C4)CC1 (some centres unmarked) [OZ267],99.92%,99.97%,99.89%,8.3 days,9.3 days,8.7 days,0.20 ng/mL,0.34 ng/mL,–,–,–,–
NC(=O)C(=O)NC[C@H]1CC[C@]2(CC1)OOC1(O2)C2CC3CC(C2)CC1C3 (some centres unmarked) [OZ268],99.86%,99.92%,99.47%,9.3 days,9.7 days,13.3 days,0.44 ng/mL,0.71 ng/mL,–,–,–,–
NC[C@H]1CC[C@@]2(CC1)OOC1(O2)C2CC3CC(C2)CC1C3 (some centres unmarked) [OZ269],98%,99.92%,86%,10.7 days,9.0 days,11.3 days,0.32 ng/mL,0.61 ng/mL,–,–,–,–
O=C(NC[C@H]1CC[C@]2(CC1)OOC1(O2)C2CC3CC(C2)CC1C3)c1cccc[n+]1[O-] (some centres unmarked) [OZ270],99.17%,99.81%,99.47%,13.7 days,11.3 days,12.3 days,0.85 ng/mL,1.3 ng/mL,–,–,–,–
FC1(c2ccccc2)CCC2(CC1)OOC1(O2)C2CC3CC(C2)CC1C3 (centres unmarked) [OZ274],–,–,–,–,–,–,5.1 ng/mL,5.7 ng/mL,11/ND %,7.0/ND days,–,–
OC1(Cc2ccccn2)CCC2(CC1)OOC1(O2)C2CC3CC(C2)CC1C3 (centres unmarked) [OZ275],–,–,–,–,–,–,0.66 ng/mL,0.74 ng/mL,68/ND %,7.3/ND days,–,–
O=C(C[C@H]1CC[C@]2(CC1)OO[C@]1(O2)C2CC3CC(C2)CC1C3)Nc1nnn[nH]1 [OZ278],–,–,–,–,–,–,23 ng/mL,39 ng/mL,56/ND %,7.3/ND days,–,–
CC(C)(N)CNC[C@H]1CC[C@]2(CC1)OOC1(O2)C2CC3CC(C2)CC1C3 (some centres unmarked) [OZ287],–,–,–,–,–,–,0.49 ng/mL,0.83 ng/mL,95%,8.3 days,68%,–
c1ccc(CNC[C@H]2CC[C@]3(CC2)OO[C@]2(O3)C3CC4CC(C3)CC2C4)nc1 [OZ292],–,–,–,–,–,–,0.19 ng/mL,0.26 ng/mL,74%,7.0 days,46%,–
O=CN1CCN(C(=O)C[C@H]2CC[C@]3(CC2)OO[C@]2(O3)C3CC4CC(C3)CC2C4)CC1 [OZ294],–,–,–,–,–,–,0.39 ng/mL,0.63 ng/mL,–,8.6 days,70%,–
O=C(C[C@H]1CC[C@]2(CC1)OO[C@]1(O2)C2CC3CC(C2)CC1C3)NCc1ccccn1 [OZ295],–,–,–,–,–,–,0.44 ng/mL,0.75 ng/mL,47%,7.0 days,35%,–
O=C(C[C@H]1CC[C@]2(CC1)OO[C@]1(O2)C2CC3CC(C2)CC1C3)N1CCC(O)CC1 [OZ297],–,–,–,–,–,–,0.49 ng/mL,0.76 ng/mL,–,9.8 days,83%,–
O=S(=O)(C[C@H]1CC[C@]2(CC1)OO[C@]1(O2)C2CC3CC(C2)CC1C3)c1ncccn1 [OZ299],–,–,–,–,–,–,6.8 ng/mL,6.3 ng/mL,36%,6.6 days,0%,–
O=C(O)CCC(=O)NC[C@H]1CC[C@]2(CC1)OO[C@]1(O2)C2CC3CC(C2)CC1C3 [OZ300],–,–,–,–,–,–,71 ng/mL,97 ng/mL,6%,6.8 days,0%,–
NC(=O)CNC(=O)C[C@H]1CC[C@]2(CC1)OO[C@]1(O2)C2CC3CC(C2)CC1C3 [OZ306],–,–,–,–,–,–,3.9 ng/mL,3.6 ng/mL,99.58%,9.2 days,87%,–
CS(=O)(=O)C[C@H]1CC[C@]2(CC1)OO[C@]1(O2)C2CC3CC(C2)CC1C3 [OZ307],–,–,–,–,–,–,0.62 ng/mL,0.88 ng/mL,98%,9.4 days,74%,–
O=C(C[C@H]1CC[C@]2(CC1)OO[C@]1(O2)C2CC3CC(C2)CC1C3)NCCN1CCOCC1 [OZ313],–,–,–,–,–,–,0.55 ng/mL,0.76 ng/mL,98.9%,–,58%,–
NC1(C(=O)NC[C@H]2CC[C@]3(CC2)OO[C@]2(O3)C3CC4CC(C3)CC2C4)CCCC1 [OZ317],–,–,–,–,–,–,0.33 ng/mL,0.36 ng/mL,99.92%,9.8 days,99.20%,–
NC(=O)CCNC[C@H]1CC[C@]2(CC1)OO[C@]1(O2)C2CC3CC(C2)CC1C3 [OZ319],–,–,–,–,–,–,0.41 ng/mL,0.91 ng/mL,99.92%,10.6 days,99.14%,10.8 days
NC1(C(=O)NC[C@H]2CC[C@]3(CC2)OO[C@]2(O3)C3CC4CC(C3)CC2C4)CCCCC1 [OZ333],–,–,–,–,–,–,0.24 ng/mL,0.44 ng/mL,99.86%,9.2 days,96%,–
NOC[C@H]1CC[C@]2(CC1)OO[C@]1(O2)C2CC3CC(C2)CC1C3 [OZ334],–,–,–,–,–,–,28 ng/mL,20 ng/mL,47%,6.8 days,13%,–
NNC(=O)C[C@H]1CC[C@]2(CC1)OO[C@]1(O2)C2CC3CC(C2)CC1C3 [OZ340],–,–,–,–,–,–,4.9 ng/mL,2.9 ng/mL,93%,9.2 days,36%,–
NC(=O)[C@@H]1CCCN1C(=O)C[C@H]1CC[C@]2(CC1)OO[C@]1(O2)C2CC3CC(C2)CC1C3 [OZ346],–,–,–,–,–,–,3.8 ng/mL,4.7 ng/mL,85%,8.8 days,51%,7.6 days
C1C2CC3CC1CC(C2)[C@]31OO[C@@]2(CC[C@H](Cc3nnn[nH]3)CC2)O1 [OZ363],–,–,–,–,–,–,46 ng/mL,55 ng/mL,40%,6.8 days,10%,6.0 days
